Experimental data from PubChem BioAssay AID1159562 (GlaxoSmithKline (GSK), 2015).
Calls of active or inactive are those of the source. How the calls were made is not given here.

System: Trypanosoma brucei growth inhibition, luminescence
Assay: Trypanosoma brucei growth inhibition, luminescence (AID 1159562);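 further: parasites grew with compound for 24 h before the luminescence read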

SMILES	IC50
CCCCn1nnnc1CSc1nc(C)cc(C)c1C#N	> 40 µM (inactive)
O=C(Nc1nc2ccccc2[nH]1)c1ccc2nc[nH]c2c1	> 40 µM (inactive)
Cc1ccc2c(c1)SC(C(=O)Nc1n[nH]c(-c3ccccn3)n1)C2 (configuration not stated)	> 40 µM (inactive)
N#Cc1cccc(CN2CCC(c3nc(-c4ccc(C(F)(F)F)nc4)no3)CC2)c1	> 40 µM (inactive)
O=C(Nc1nccs1)c1ccccc1Cn1cc([N+](=O)[O-])cn1	0.5 µM
CCN(Cc1nc2ccc(C(=O)N3CCN(c4ncccn4)CC3)cc2[nH]1)C1CCCc2cccnc21 (configuration not stated)	5 µM
COc1ccccc1C=CCN1C[C@H]2CCC[C@@H](C1)C2(O)c1cccnc1 (some centres not stated)	> 40 µM (inactive)
CNS(=O)(=O)c1ccccc1Nc1nc(Nc2ccnn2C)ncc1Cl	0.1 µM
Cc1ccccc1NS(=O)(=O)c1ccc2[nH]cc(C(=O)NC3CCCCC3)c(=O)c2c1	0.32 µM
COc1cccc(NS(=O)(=O)c2ccc3[nH]cc(C(=O)NCCC(C)C)c(=O)c3c2)c1	0.63 µM
COc1ccnc2[nH]cc(-c3cc(C(=O)N[C@H](CO)c4ccccc4)co3)c12	0.013 µM
CCC(=O)N1N=C(c2ccc3c(c2)CCCC3)Sc2c1ncn2C(=O)CC	20 µM
CS(=O)(=O)NC1CCC(Nc2ncc(Br)c(Nc3ccccc3C(N)=O)n2)CC1 (configuration not stated)	0.079 µM
CCCCc1cc(Nc2cc(C3CCC3)[nH]n2)nc(N2CCC2C(N)=O)n1 (configuration not stated)	0.16 µM
Clc1ccc(Sc2cnccc2N2CCOCC2)cc1	> 40 µM (inactive)
COc1ccccc1C1CC(c2ccc(NS(C)(=O)=O)cc2)=NN1C(=O)c1cccs1 (configuration not stated)	20 µM
O=C(c1ccc(O)c(Cl)c1)N1CCN(c2cnccn2)CC1	> 40 µM (inactive)
CCCn1c(NC(=O)CCn2cc(Br)cn2)nc2ccccc21	7.9 µM
Cc1nc(-c2nc(NCc3ccc(Cl)cc3)c3cccnc3c2O)n[nH]1	0.79 µM
CCn1c(NC(=O)Cc2ccc(F)cc2)nc2ccccc21	5 µM
NS(=O)(=O)c1ccc(CNC(=O)c2ccc([N+](=O)[O-])s2)cc1	0.25 µM
O=C(CN(Cc1ccccn1)Cc1ccccn1)NCc1csc(-c2cccs2)n1	16 µM
CNc1c(C(N)=O)c(-c2ccc3scnc3c2)nn1CC(F)(F)F	> 40 µM (inactive)
O=C(NCCc1ccccc1Cl)c1cccn1-c1cccnc1	> 40 µM (inactive)
COc1cc(C2SCC(=O)Nc3c2c(C)nn3-c2nc3ccccc3s2)cc(OC)c1O (configuration not stated)	> 40 µM (inactive)
CNc1cc(Cn2c(C(=O)c3cc(C)cc(Cl)c3)c(C(C)C)c(=O)[nH]c2=O)ccn1	25 µM
N#Cc1c(Oc2cccc(Cl)c2)cccc1[N+](=O)[O-]	0.005 µM
O=C(CCc1ccc(-c2ccccc2)o1)N1CCN(c2ccc(O)cc2)CC1	40 µM

Further lines, results first:

IC50	SMILES
> 40 µM (inactive)	O=C(Cc1ccc2c(c1)CCC2)Nc1n[nH]c(-c2ccccn2)n1
> 40 µM (inactive)	Cc1c(C(=O)NCCCCn2ccnc2)oc2c(C)cccc12
0.25 µM	Cc1cc(Nc2ccc(C#N)c(Cl)c2C)n[nH]1
> 40 µM (inactive)	CS(=O)(=O)c1ccc(CC(=O)Nc2nc(-c3ccc(Cl)s3)cs2)cc1
> 40 µM (inactive)	O=C(Cn1cnc2cc([N+](=O)[O-])ccc2c1=O)NCCc1ccc(Cl)cc1Cl
0.25 µM	Cc1cc(NC(=O)C2CC2)ccc1OC1CCN(Cc2ccco2)CC1
0.63 µM	O=C1NCCn2ccc(Nc3nc(NC4CCC(O)CC4)ncc3Cl)c21 (configuration not stated)
4 µM	Cc1ccc2ccc(C(Nc3ccccn3)c3cccnc3)c(O)c2n1 (configuration not stated)
3.2 µM	Nc1nc(-c2ccccn2)nc(-n2nc(-c3ccccc3)cc2N)n1
> 40 µM (inactive)	O=C1CCCCCC1(Cc1cnc[nH]1)c1ccc(Cl)cc1Cl (configuration not stated)
0.79 µM	C[C@@H](Oc1cc(-n2cnc3cc(N)ccc32)sc1C(N)=O)c1ccccc1Cl
> 40 µM (inactive)	CCc1cccc(-n2nc(OCC(=O)NC3CCCC3)c3cccnc32)c1
0.79 µM	CC(C)(C)CC(=O)NCc1noc(COc2ccccc2)n1
> 40 µM (inactive)	COCc1cc(Nc2ccccc2)nc(-c2ccccn2)n1
